Values of other authors, collected in EP2919756B1, “SOLID LIPID NANOPARTICLES OF ROXITHROMYCIN FOR HAIR LOSS OR ACNE” (Gdanski Uniwersytet Medyczny, priority 2012, dated 2014).

Assays:
human hair follicles = human hair follicles in vitro
[1] = external application of 0.5% solution for 24 weeks

For `CC[C@H]1OC(=O)[C@H](C)[C@@H](O[C@H]2C[C@@](C)(OC)[C@@H](O)[C@H](C)O2)[C@H](C)[C@@H](O[C@@H]2O[C@H](C)C[C@H](N(C)C)[C@H]2O)[C@](C)(O)C[C@@H](C)/C(=N\OCOCCOC)[C@H](C)[C@@H](O)[C@]1(C)O` [roxithromycin, Roxithromycin], the hair elongation (human hair follicles) is given as “caused hair elongation”, the “follicle's passage to the catagen phase” value (human hair follicles; through inhibition of keratinocyte apoptosis) is given as “inhibit the follicle's passage to the catagen phase” and the “local or systemic side effects or undesirable action” value [1] is given as “no local or systemic side effects or undesirable action was recorded”. The “thickening of the hair” value [1] was “Substantial thickening of the hair” and the restored hair growth ([1]; patients with androgenic hair loss) was “more than half of the patient population”.
